The record followed here is PubChem BioAssay AID1845210 (Molecular Pharmacology Branch, DTP, NCI, 2023).

For this test, the system named is NCI-H226 complex tumor spheroids, viability. Nature of the test: Anticancer human tumor NCI-H226 cell line growth inhibition.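 On all read-outs here: spheroids exposed to compound for 7 days.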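 On viability, T/C: 100% = DMSO vehicle control viability.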 The conditions noted are these: for viability, T/C: stronger effect = lower value. In short, it runs like this: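 Complex tumor spheroids combined malignant cells with endothelial cells and mesenchymal stem cells. DNA-damaging drugs and DNA repair inhibitors were tested alone and in combination, at half-log dilutions down from clinical Cmax (top 10 microM if Cmax unknown), 0.25% DMSO final.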

Molecules are shown by their SMILES. Values joined by “and” are separate entries in the source; they are usually repeats but may differ in a detail not shown here. Equal entries are not always repeated.

`Cc1sc2c(c1C)C(c1ccc(Cl)cc1)=NC(CC(=O)Nc1ccc(O)cc1)c1nnc(C)n1-2` (configuration not stated): the viability, T/C (commonly the result in the treated group divided by that in the control group, in per cent) was 80.2% and 99.2% and 85.2% (compound 0.00949 µM); 72.7% and 73.6% and 78.2% (compound 0.03 µM); 79.5% and 64.3% and 96.1% (compound 0.0949 µM); 57.7% and 57.8% and 77.4% (compound 0.3 µM); 47.1% and 50.4% and 73.6% (compound 0.949 µM); 38.5% and 49.4% and 63.2% (compound 3 µM). Besides, the 50% inhibitory concentration (IC50) (commonly the midpoint of a concentration-inhibition curve) (curve of compound) was 0.592 µM and > 3 µM.

On to `[2H]c1nc(C)nc([2H])c1-c1cc(NC[C@@H](C)c2cccc3c(C(=O)NC)ccnc23)ncn1` + COc1cc2c(cc1O)CCNC21CSC2c3c(OC(C)=O)c(C)c4c(c3C(COC1=O)N1C(O)C3Cc5cc(C)c(OC)c(O)c5C(C21)N3C)OCO4, for which the 50% inhibitory concentration (IC50) was more than 10 µM (curve of first compound, second compound 30 pM); more than 10 µM (curve of first compound, second compound 94.9 pM); more than 10 µM (curve of first compound, second compound 0.0003 µM); more than 10 µM (curve of first compound, second compound 0.000949 µM); less than 0.0316 µM (curve of first compound, second compound 0.003 µM). The viability, T/C is, setting by setting: (second compound 30 pM, first compound 0.0316 µM) 99.6%; (second compound 30 pM, first compound 0.1 µM) 101%; (second compound 30 pM, first compound 0.316 µM) 93%; (second compound 30 pM, first compound 1 µM) 106%; (second compound 30 pM, first compound 3.16 µM) 111%; (second compound 30 pM, first compound 10 µM) 101%. In addition, the viability, T/C by setting is: (second compound 94.9 pM, first compound 0.0316 µM) 99.1%; (second compound 94.9 pM, first compound 0.1 µM) 101%; (second compound 94.9 pM, first compound 0.316 µM) 100%; (second compound 94.9 pM, first compound 1 µM) 101%; (second compound 94.9 pM, first compound 3.16 µM) 103%; (second compound 94.9 pM, first compound 10 µM) 103%. The viability, T/C (second compound 0.0003 µM, first compound 0.0316 µM) was 105%; the viability, T/C (second compound 0.0003 µM, first compound 0.1 µM) was 110%; the viability, T/C (second compound 0.0003 µM, first compound 0.316 µM) is 115%; the viability, T/C (second compound 0.0003 µM, first compound 1 µM) was 118%; the viability, T/C (second compound 0.0003 µM, first compound 3.16 µM) was 98.7%; the viability, T/C (second compound 0.0003 µM, first compound 10 µM) was 118%. Further, the viability, T/C was 105% (second compound 0.000949 µM, first compound 0.0316 µM); 114% (second compound 0.000949 µM, first compound 0.1 µM); 102% (second compound 0.000949 µM, first compound 0.316 µM); 112% (second compound 0.000949 µM, first compound 1 µM); 101% (second compound 0.000949 µM, first compound 3.16 µM); 105% (second compound 0.000949 µM, first compound 10 µM). For the same molecule, the viability, T/C is, setting by setting: (second compound 0.003 µM, first compound 0.0316 µM) 3.26%; (second compound 0.003 µM, first compound 0.1 µM) 3.28%; (second compound 0.003 µM, first compound 0.316 µM) 1.57%; (second compound 0.003 µM, first compound 1 µM) 2.56%; (second compound 0.003 µM, first compound 3.16 µM) 1.3%; (second compound 0.003 µM, first compound 10 µM) 0.8%.
